Results: paper PMC9925432, “Thioquinoline derivatives conjugated to thiosemicarbazide as potent tyrosinase inhibitors with anti-melanogenesis properties” (Scientific Reports, 2023)
“Also recorded” adds a separate entry of the source. Like-named read-outs stand apart in the source and are kept apart here.

Legend:
[1] = parameters: method as in PMID 33640246; conditions: at 8 µM; cited from earlier work
[2] = MTT assay for cell viability, A375; assay type: cell-based; conditions: human, A375 cells, 48 h, mean ± S.E.M.
Description: (§1) The cytotoxic activity of all derivatives against the HEK 293 cell line and 10g against A375 (at a density of 5 × 10^3 cells/ml) using 3-(4,5-dimethylthiazol-2-yl)-2,5- diphenyltetrazolium bromide (MTT) assay were performed. Cells were grown at 37 °C in the presence of CO2 5% in DMEM (Gibco BRL, Grand Island, NY, USA), 10% fetal bovine serum (FBS, Gibco BRL), and penicillin/streptomycin (100 IU/mL and 100 µg/mL, respectively). Next cells were seeded in a 96-well plate and incubated at 37 ^∘C with derivatives at different concentrations for 48 h. Following the treatment, cells were incubated with MTT (0.5 mg/ml) at 37 ^∘C for 3 h. The MTT-containing medium was then removed, and 100 μl of DMSO was added to each well, mixed thoroughly with a 10 min shake to dissolve formazan crystals. The absorbance of each well was measured at 540 nm[33].

A375 cells = test: MTT assay for cell viability, A375; assay type: cell-based; conditions: up to 32 μM
Description: as §1

[3] = target: T1, Mushroom tyrosinase (EC 1.14.18.1) (Agaricus bisporus, UniProt C7FF04); test: Tyrosinase inhibitory assay (colorimetric, diphenolase activity, L-Dopa); assay type: biochemical; conditions: L-Dopa as substrate; means ± RSD of 3 independent experiments
T1 construct: purchased Sigma Chemical Co
T1 sequence (C7FF04 1-392 limits assumed): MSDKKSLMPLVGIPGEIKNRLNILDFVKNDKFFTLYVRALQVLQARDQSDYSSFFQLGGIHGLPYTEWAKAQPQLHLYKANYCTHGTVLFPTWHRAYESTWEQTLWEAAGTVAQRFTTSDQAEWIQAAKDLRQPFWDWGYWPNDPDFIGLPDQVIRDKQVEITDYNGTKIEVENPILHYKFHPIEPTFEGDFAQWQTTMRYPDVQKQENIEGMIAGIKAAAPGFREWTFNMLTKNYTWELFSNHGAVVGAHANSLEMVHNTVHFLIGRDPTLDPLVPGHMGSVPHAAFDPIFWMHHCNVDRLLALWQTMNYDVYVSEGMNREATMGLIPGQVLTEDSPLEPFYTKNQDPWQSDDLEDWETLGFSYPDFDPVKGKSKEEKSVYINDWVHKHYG
Description: Mushroom tyrosinase (EC 1.14.18.1) (Sigma Chemical Co.) was assayed using L-Dopa as the substrate as reported in our previous studies with some modifications[30]–[32]. The enzyme diphenolase activity was monitored spectrophotometrically by observing dopachrome formation at 490 nm. All the test samples were first dissolved in DMSO at 10 mM and diluted to the required concentrations. Initially, in a 96-well microplate, 10 µl of test samples were added to 160 µl of 50 mM phosphate buffer (pH = 6.8) and then 10 µl tyrosinase (500 U mL^−1) was added. After the mixture was pre-incubated at 28 °C for 20 min, 20 µl of L-Dopa solution (7 mM) was added to the mixture. After 10 min incubation absorbance of samples was measured. DMSO without test compounds was used as the control, and kojic acid was used as a positive control. Each assay was conducted as three separate replicates. The inhibitory activity of the tested compounds was expressed as the concentration that inhibited 50% of the enzyme activity (IC50). […]

mushroom tyrosinase [4] = test: Enzyme kinetic study (Lineweaver–Burk plot); assay type: biochemical
Description: The Lineweaver–Burk reciprocal plot was provided by plotting 1/V against 1/[S] at variable concentrations of the substrate L-Dopa (0.25, 0.5, 0.75, and 1 mM) The inhibition constant Ki was achieved by the plot of slopes versus the corresponding concentrations of the compound 10g[24].

A375 cell line = test: Melanin content assay; assay type: cell-based; conditions: A375, 48 h, at tested concentrations, kojic acid positive control
Description: The assay was performed according to previously reported procedures. In detail, A375 cells were seeded in six-well plates (2.0 × 10^5 cells/well). After 24 h, the medium was replaced by a fresh one and treated with 10g at different concentrations and the plate was incubated for an extra 48 h. After that cells were washed twice with PBS and harvested using […], then dissolved in 300 μl of 1 N NaOH/10% DMSO buffer and boiled for 2 h at 80 °C to solubilize the melanin. The absorbance of the supernatant was measured at 470 nm in a microplate reader. The obtained results were normalized using total protein content. Kojic acid was used as a positive[30],[34].

[5] = MTT assay for cell viability, HEK 293; assay type: cell-based; conditions: human, HEK 293 cells, 48 h, MTT, mean ± S.E.M.
Description: as §1

HEK 293 cell line = test: MTT assay for cell viability, HEK 293; assay type: cell-based; conditions: HEK 293, 32 µM, 48 h, MTT; mean ± S.E.M.; 32 µM
Description: as §1

tyrosinase = test: Fluorescence quenching of tyrosinase (Stern–Volmer); assay type: binding
Description: The fluorescent measurements were carried out in each well of the black 96 well plate by adding various concentrations of inhibitor 10g, (Q = 5, 10, 20, 40, and 100 µM) to a constant concentration of tyrosinase (273 IU/mL). Next, phosphate buffer solution (0.05 M, pH = 6.8) was used to bring the capacity of each well to 200 µL. Before measurements, all solutions were properly mixed and allowed to stand for 20 min at 298 K and 304 K. A fluorescence spectrometer (BioTek’s multi-mode plate reader, USA) was used to measure the fluorescence spectra. The bandwidths of excitation and emission were both set at 5 nm, and fluorescence emission spectra were captured spanning the wavelength range of 310–400 nm at an excitation wavelength of 280 nm.
The linear Stern–Volmer Eq. (1) was used to examine the fluorescence quenching:1 F0/F=1+kqτ0Q=1+kSV[Q] where, F and F0 represent the fluorescence intensity in the presence or absence of inhibitors, respectively. The bimolecular quenching constant is denoted by the symbol kq, whereas the average lifespan of a biomolecule without a quencher is denoted by the symbol τ0, and its value is 10^−8 s. [Q] refers to the inhibitor concentration (µM). KSV which is calculated by kq . τ0. is the fluorescence quenching constant.
In order to calculate the apparent binding constant and binding fraction of fluorophore group of tyrosinase accessible to inhibitor 10g, Stern–Volmer Eq. (1) should be modified to Eq. (2):2 LogF0-F/F=log KA+n LogQ
In this equation, KA indicates either the modified apparent binding constant or the Stern–Volmer quenching constant. n represents the fraction of fluorophore accessible to the quencher. The intercept of the curve that is obtained by plotting log (F0-F/F) versus log [Q] is log KA, and the slope of the curve is n. Therefore, the intercept and slope data may be used to calculate the values of KA and n.

mushroom tyrosinase [6] = conditions: cited from earlier work
melanoma cells = tested on: melanoma cells; parameters: method as in PMID 28393917; conditions: cited from earlier work

O=c1cc(CSc2nc3ccccc3c(=O)n2Cc2ccccn2)occ1O [C]
melanin content [1]: 68.99%

NC(=S)N/N=C/c1cc2ccccc2nc1SCC(=O)Nc1ccc(Cl)cc1 [Compound 10g, (E)-2-((3-((2-carbamothioylhydrazono)methyl)quinolin-2-yl)thio)-N-(4-chlorophenyl)acetamide]
viability at 48 h, 16 µM ([2]; A375, 16 µM): 93.7 ± 2.24%
viability at 48 h, 32 µM ([2]; A375, 32 µM): 87.5 ± 1.53%
viability at 48 h, 64 µM ([2]; A375, 64 µM): 61.2 ± 3.91%
toxicity on A375 cell line (A375 cells): did not show significant toxicity
IC50 [3]: 25.7 µM
Km (mushroom tyrosinase [4]; 10g 1 µM): 800 µM
Vmax (mushroom tyrosinase [4]; 10g 1 µM): 80.00 mM/min
Km (mushroom tyrosinase [4]; 10g 10 µM): 850 µM
Vmax (mushroom tyrosinase [4]; 10g 10 µM): 67.57 mM/min
Km (mushroom tyrosinase [4]; 10g 20 µM): 850 µM
Vmax (mushroom tyrosinase [4]; 10g 20 µM): 50.25 mM/min
Km (mushroom tyrosinase [4]; 10g 40 µM): 950 µM
inhibition pattern (type of inhibition) (mushroom tyrosinase [4]; Lineweaver–Burk plot, L-Dopa as substrate): noncompetitive
melting point: 185 to 191 °C
effect on melanin content (A375 cell line): reduced the melanin content; also recorded: significant reduction of melanin content
viability at 48 h, 16 µM ([5]; HEK 293, 16 µM): 92.7 ± 1.47%
viability at 48 h, 32 µM ([5]; HEK 293, 32 µM): > 85%
viability at 48 h, 64 µM ([5]; HEK 293, 64 µM): 72.5 ± 2.41%
Cell viability (%) (HEK 293 cell line): 86.14 ± 2.17%
KA (binding constant) (tyrosinase; 298 K): 71150 L/mol
Kq (bimolecular quenching constant) (tyrosinase; 298 K): 6.69 × 10^12 L⋅mol^–1⋅s^–1
Ksv (Stern–Volmer constant) (tyrosinase; 298 K): 6.69 × 10^4 L.mol^–1
n (binding sites) (tyrosinase; 298 K): 0.9288
n (binding sites) (tyrosinase; 298 K and 304 K): ~1
Kq (bimolecular quenching constant) (tyrosinase; 298 K and 304 K, all values): higher than 2 × 10^10 L⋅mol^−1⋅s^−1
KA (binding constant) (tyrosinase; 304 K): 52200 L/mol
Kq (bimolecular quenching constant) (tyrosinase; 304 K): 5.14 × 10^12 L⋅mol^–1⋅s^–1
Ksv (Stern–Volmer constant) (tyrosinase; 304 K): 5.14 × 10^4 L.mol^–1
n (binding sites) (tyrosinase; 304 K): 1.0604

Oc1cnc2c(O)cccc2c1 [Jineol]
IC50 (mushroom tyrosinase [6]; L-Dopa as substrate): 50.35 ± 0.05 µM
IC50 (mushroom tyrosinase [6]; L-tyrosine as substrate): 39.46 ± 0.01 µM
effect on melanin content (melanoma cells): reduced melanin content
